# Experimental data reported in BigSolDB 2.1.
# [1] = in morpholine-4-carbaldehyde, 293.2 K
# [2] = in morpholine-4-carbaldehyde, 298.2 K
# [3] = in morpholine-4-carbaldehyde, 303.2 K
# [4] = in morpholine-4-carbaldehyde, 308.2 K
# [5] = in morpholine-4-carbaldehyde, 313.2 K
# [6] = in morpholine-4-carbaldehyde, 318.2 K
# [7] = in morpholine-4-carbaldehyde, 323.2 K
# [8] = in morpholine-4-carbaldehyde, 328.2 K
smiles,measurement,setting,value
C[C@@H]1CC[C@@]2(OC1)O[C@H]1C[C@H]3[C@@H]4CC=C5C[C@@H](O)CC[C@]5(C)[C@H]4CC[C@]3(C)[C@H]1[C@@H]2C,solubility (mole fraction),"in 2-aminoethanol, 293.2 K",0.00142
same,solubility (mole fraction),"in 2-aminoethanol, 298.2 K",0.00218
same,solubility (mole fraction),"in 2-aminoethanol, 303.2 K",0.0042
same,solubility (mole fraction),"in 2-aminoethanol, 308.2 K",0.00625
same,solubility (mole fraction),"in 2-aminoethanol, 313.2 K",0.00807
same,solubility (mole fraction),"in 2-aminoethanol, 318.2 K",0.00914
same,solubility (mole fraction),"in 2-aminoethanol, 323.2 K",0.011
same,solubility (mole fraction),"in 2-aminoethanol, 328.2 K",0.0132
same,solubility (mole fraction),"in DMF, 293.2 K",0.00113
same,solubility (mole fraction),"in DMF, 298.2 K",0.00159
same,solubility (mole fraction),"in DMF, 303.2 K",0.00232
same,solubility (mole fraction),"in DMF, 308.2 K",0.00369
same,solubility (mole fraction),"in DMF, 313.2 K",0.00461
same,solubility (mole fraction),"in DMF, 318.2 K",0.00587
same,solubility (mole fraction),"in DMF, 323.2 K",0.00794
same,solubility (mole fraction),"in DMF, 328.2 K",0.0116
same,solubility (mole fraction),"in NMP, 293.2 K",0.0118
same,solubility (mole fraction),"in NMP, 298.2 K",0.0128
same,solubility (mole fraction),"in NMP, 303.2 K",0.0138
same,solubility (mole fraction),"in NMP, 308.2 K",0.0148
same,solubility (mole fraction),"in NMP, 313.2 K",0.0163
same,solubility (mole fraction),"in NMP, 318.2 K",0.0178
same,solubility (mole fraction),"in NMP, 323.2 K",0.0196
same,solubility (mole fraction),"in NMP, 328.2 K",0.0219
same,solubility (mole fraction),"in acetonitrile, 293.2 K",0.00359
same,solubility (mole fraction),"in acetonitrile, 298.2 K",0.00529
same,solubility (mole fraction),"in acetonitrile, 303.2 K",0.00675
same,solubility (mole fraction),"in acetonitrile, 308.2 K",0.00894
same,solubility (mole fraction),"in acetonitrile, 313.2 K",0.0125
same,solubility (mole fraction),"in acetonitrile, 318.2 K",0.0151
same,solubility (mole fraction),"in acetonitrile, 323.2 K",0.0188
same,solubility (mole fraction),"in acetonitrile, 328.2 K",0.0221
same,solubility (mole fraction),[1],0.00663
same,solubility (mole fraction),[2],0.00809
same,solubility (mole fraction),[3],0.00976
same,solubility (mole fraction),[4],0.012
same,solubility (mole fraction),[5],0.0147
same,solubility (mole fraction),[6],0.0162
same,solubility (mole fraction),[7],0.0181
same,solubility (mole fraction),[8],0.0198
same,solubility (mole fraction),"in n-dodecane, 293.2 K",0.000266
same,solubility (mole fraction),"in n-dodecane, 298.2 K",0.000351
same,solubility (mole fraction),"in n-dodecane, 303.2 K",0.000439
same,solubility (mole fraction),"in n-dodecane, 308.2 K",0.000542
same,solubility (mole fraction),"in n-dodecane, 313.2 K",0.000631
same,solubility (mole fraction),"in n-dodecane, 318.2 K",0.000743
same,solubility (mole fraction),"in n-dodecane, 323.2 K",0.000898
same,solubility (mole fraction),"in n-dodecane, 328.2 K",0.00105
same,solubility (mole fraction),"in n-hexadecane, 293.2 K",0.000256
same,solubility (mole fraction),"in n-hexadecane, 298.2 K",0.000373
same,solubility (mole fraction),"in n-hexadecane, 303.2 K",0.000465
same,solubility (mole fraction),"in n-hexadecane, 308.2 K",0.000626
same,solubility (mole fraction),"in n-hexadecane, 313.2 K",0.000949
same,solubility (mole fraction),"in n-hexadecane, 318.2 K",0.00131
same,solubility (mole fraction),"in n-hexadecane, 323.2 K",0.00171
same,solubility (mole fraction),"in n-hexadecane, 328.2 K",0.00244
same,solubility (mole fraction),"in n-nonanol, 293.2 K",0.0067
same,solubility (mole fraction),"in n-nonanol, 298.2 K",0.00825
same,solubility (mole fraction),"in n-nonanol, 303.2 K",0.00965
same,solubility (mole fraction),"in n-nonanol, 308.2 K",0.011
same,solubility (mole fraction),"in n-nonanol, 313.2 K",0.0123
same,solubility (mole fraction),"in n-nonanol, 318.2 K",0.0132
same,solubility (mole fraction),"in n-nonanol, 323.2 K",0.0145
same,solubility (mole fraction),"in n-nonanol, 328.2 K",0.0155
same,solubility (mole fraction),"in n-octane, 293.2 K",8.1e-05
same,solubility (mole fraction),"in n-octane, 298.2 K",0.00013
same,solubility (mole fraction),"in n-octane, 303.2 K",0.00016
same,solubility (mole fraction),"in n-octane, 308.2 K",0.00021
same,solubility (mole fraction),"in n-octane, 313.2 K",0.000302
same,solubility (mole fraction),"in n-octane, 318.2 K",0.000466
same,solubility (mole fraction),"in n-octane, 323.2 K",0.00068
same,solubility (mole fraction),"in n-octane, 328.2 K",0.000915
same,solubility (mole fraction),"in n-octanol, 293.2 K",0.00348
same,solubility (mole fraction),"in n-octanol, 298.2 K",0.00423
same,solubility (mole fraction),"in n-octanol, 303.2 K",0.00516
same,solubility (mole fraction),"in n-octanol, 308.2 K",0.0066
same,solubility (mole fraction),"in n-octanol, 313.2 K",0.00842
same,solubility (mole fraction),"in n-octanol, 318.2 K",0.00947
same,solubility (mole fraction),"in n-octanol, 323.2 K",0.0104
same,solubility (mole fraction),"in n-octanol, 328.2 K",0.0116
same,solubility (mole fraction),"in sec-butanol, 293.2 K",0.000128
same,solubility (mole fraction),"in sec-butanol, 298.2 K",0.000229
same,solubility (mole fraction),"in sec-butanol, 303.2 K",0.000436
same,solubility (mole fraction),"in sec-butanol, 308.2 K",0.000784
same,solubility (mole fraction),"in sec-butanol, 313.2 K",0.00119
same,solubility (mole fraction),"in sec-butanol, 318.2 K",0.0017
same,solubility (mole fraction),"in sec-butanol, 323.2 K",0.00253
same,solubility (mole fraction),"in sec-butanol, 328.2 K",0.00366
C[C@]12CC[C@@H]3c4ccc(O)cc4CC[C@H]3[C@@H]1C[C@@H](O)[C@@H]2O,solubility (mole fraction),"in 2-aminoethanol, 293.2 K",0.0111
same,solubility (mole fraction),"in 2-aminoethanol, 298.2 K",0.0127
same,solubility (mole fraction),"in 2-aminoethanol, 303.2 K",0.0148
same,solubility (mole fraction),"in 2-aminoethanol, 308.2 K",0.018
same,solubility (mole fraction),"in 2-aminoethanol, 313.2 K",0.0214
same,solubility (mole fraction),"in 2-aminoethanol, 318.2 K",0.0254
same,solubility (mole fraction),"in 2-aminoethanol, 323.2 K",0.0314
same,solubility (mole fraction),"in 2-aminoethanol, 328.2 K",0.0363
same,solubility (mole fraction),"in DMF, 293.2 K",0.00112
same,solubility (mole fraction),"in DMF, 298.2 K",0.00158
same,solubility (mole fraction),"in DMF, 303.2 K",0.00258
same,solubility (mole fraction),"in DMF, 308.2 K",0.00426
same,solubility (mole fraction),"in DMF, 313.2 K",0.00581
same,solubility (mole fraction),"in DMF, 318.2 K",0.00958
same,solubility (mole fraction),"in DMF, 323.2 K",0.013
same,solubility (mole fraction),"in DMF, 328.2 K",0.018
same,solubility (mole fraction),"in NMP, 293.2 K",0.000415
same,solubility (mole fraction),"in NMP, 298.2 K",0.000677
same,solubility (mole fraction),"in NMP, 303.2 K",0.00105
same,solubility (mole fraction),"in NMP, 308.2 K",0.00174
same,solubility (mole fraction),"in NMP, 313.2 K",0.00275
same,solubility (mole fraction),"in NMP, 318.2 K",0.00364
same,solubility (mole fraction),"in NMP, 323.2 K",0.00491
same,solubility (mole fraction),"in NMP, 328.2 K",0.00718
same,solubility (mole fraction),[1],6.2e-05
same,solubility (mole fraction),[2],0.00023
same,solubility (mole fraction),[3],0.000652
same,solubility (mole fraction),[4],0.00147
same,solubility (mole fraction),[5],0.00343
same,solubility (mole fraction),[6],0.00495
same,solubility (mole fraction),[7],0.00726
same,solubility (mole fraction),[8],0.0107
same,solubility (mole fraction),"in n-dodecane, 293.2 K",0.00072
same,solubility (mole fraction),"in n-dodecane, 298.2 K",0.000779
same,solubility (mole fraction),"in n-dodecane, 303.2 K",0.00092
same,solubility (mole fraction),"in n-dodecane, 308.2 K",0.000956
same,solubility (mole fraction),"in n-dodecane, 313.2 K",0.00128
same,solubility (mole fraction),"in n-dodecane, 318.2 K",0.00179
same,solubility (mole fraction),"in n-dodecane, 323.2 K",0.00243
same,solubility (mole fraction),"in n-dodecane, 328.2 K",0.00285
same,solubility (mole fraction),"in n-hexadecane, 293.2 K",0.00114
same,solubility (mole fraction),"in n-hexadecane, 298.2 K",0.00147
same,solubility (mole fraction),"in n-hexadecane, 303.2 K",0.00175
same,solubility (mole fraction),"in n-hexadecane, 308.2 K",0.00219
same,solubility (mole fraction),"in n-hexadecane, 313.2 K",0.00251
same,solubility (mole fraction),"in n-hexadecane, 318.2 K",0.00299
same,solubility (mole fraction),"in n-hexadecane, 323.2 K",0.00335
same,solubility (mole fraction),"in n-hexadecane, 328.2 K",0.00382
same,solubility (mole fraction),"in n-nonanol, 293.2 K",0.0074
same,solubility (mole fraction),"in n-nonanol, 298.2 K",0.00863
same,solubility (mole fraction),"in n-nonanol, 303.2 K",0.0104
same,solubility (mole fraction),"in n-nonanol, 308.2 K",0.0116
same,solubility (mole fraction),"in n-nonanol, 313.2 K",0.0131
same,solubility (mole fraction),"in n-nonanol, 318.2 K",0.0147
same,solubility (mole fraction),"in n-nonanol, 323.2 K",0.0168
same,solubility (mole fraction),"in n-nonanol, 328.2 K",0.0199
same,solubility (mole fraction),"in n-octane, 293.2 K",0.000621
same,solubility (mole fraction),"in n-octane, 298.2 K",0.000735
same,solubility (mole fraction),"in n-octane, 303.2 K",0.000873
same,solubility (mole fraction),"in n-octane, 308.2 K",0.00103
same,solubility (mole fraction),"in n-octane, 313.2 K",0.00123
same,solubility (mole fraction),"in n-octane, 318.2 K",0.00138
same,solubility (mole fraction),"in n-octane, 323.2 K",0.00152
same,solubility (mole fraction),"in n-octane, 328.2 K",0.00186
same,solubility (mole fraction),"in n-octanol, 293.2 K",0.00593
same,solubility (mole fraction),"in n-octanol, 298.2 K",0.00678
same,solubility (mole fraction),"in n-octanol, 303.2 K",0.00747
same,solubility (mole fraction),"in n-octanol, 308.2 K",0.00868
same,solubility (mole fraction),"in n-octanol, 313.2 K",0.0104
same,solubility (mole fraction),"in n-octanol, 318.2 K",0.0121
same,solubility (mole fraction),"in n-octanol, 323.2 K",0.0147
same,solubility (mole fraction),"in n-octanol, 328.2 K",0.0171
same,solubility (mole fraction),"in n-pentanol, 293.2 K",0.00243
same,solubility (mole fraction),"in n-pentanol, 298.2 K",0.00285
same,solubility (mole fraction),"in n-pentanol, 303.2 K",0.00367
same,solubility (mole fraction),"in n-pentanol, 308.2 K",0.00468
same,solubility (mole fraction),"in n-pentanol, 313.2 K",0.00594
same,solubility (mole fraction),"in n-pentanol, 318.2 K",0.00809
same,solubility (mole fraction),"in n-pentanol, 323.2 K",0.00967
same,solubility (mole fraction),"in n-pentanol, 328.2 K",0.0121
same,solubility (mole fraction),"in sec-butanol, 293.2 K",0.00189
same,solubility (mole fraction),"in sec-butanol, 298.2 K",0.0025
same,solubility (mole fraction),"in sec-butanol, 303.2 K",0.0032
same,solubility (mole fraction),"in sec-butanol, 308.2 K",0.00403
same,solubility (mole fraction),"in sec-butanol, 313.2 K",0.00453
same,solubility (mole fraction),"in sec-butanol, 318.2 K",0.00533
same,solubility (mole fraction),"in sec-butanol, 323.2 K",0.00668
same,solubility (mole fraction),"in sec-butanol, 328.2 K",0.00812
same,solubility (mole fraction),"in water, 293.2 K",0.000115
same,solubility (mole fraction),"in water, 298.2 K",0.000135
same,solubility (mole fraction),"in water, 303.2 K",0.000168
same,solubility (mole fraction),"in water, 308.2 K",0.000191
same,solubility (mole fraction),"in water, 313.2 K",0.000306
same,solubility (mole fraction),"in water, 318.2 K",0.000422
same,solubility (mole fraction),"in water, 323.2 K",0.000577
same,solubility (mole fraction),"in water, 328.2 K",0.000803
